Experiments:
mice [1] = assay: Intravenous toxicity in mice (LD50); type: in vivo; conditions: concentration administered 300 mgI/ml
Excerpt: (§1) As indicated above, the new non-ionic compounds according to the invention have shown markedly low levels of toxicity, especially in intracerebral tests. […] It will be seen that all the new compounds listed are very much better than the known compounds in the intracerebral test.
(§2) Intravenous and Intracerebral Toxicity
(§3) Most of the compounds were so inert that it was not physically possible to inject sufficient substance to kill 50% of the mice and in such cases only a minimum value can be given for the LD50.

mice [2] = assay: Intracerebral toxicity in mice (LD50); type: in vivo; conditions: 300 mgI/ml
Excerpt: as §1, §2, §3

Solubility in water = type: physicochemical; conditions: water, room temperature; read-out: Solubility in water at room temperature (class)
[3] = Osmolality of aqueous solution; type: physicochemical; conditions: 37° C.; 300 mg I/ml
Method: As indicated above, the compounds according to the invention are of low osmolality as compared to conventional ionic contrast agents and many of the compounds show even lower osmolality values than would have been expected. The observed osmolality in each case would be expected to be about 0.8 mol/kg but compounds 3, 33, 35, 44 and 11 identified in Table I have shown osmolality values of 0.47, 0.48, 0.61, 0.53 and 0.48 mol/kg respectively at 37° C. (300 mg I ml). The last two compounds in Table 2, which are ionic compounds shown for comparison, have osmolality values of about 1.6 mol/kg.

[4] = subarachnoideal space; in words; cited from earlier work
Viscosity = type: physicochemical; conditions: 20° C.; 300 mgI/ml
Excerpt: However, the preferred compounds listed above in relation to the myelographic field are also very useful in cardiovascular visualisation due to their extremely good tolerance.

CC(=O)Nc1c(I)c(C(=O)N(C)C[C@H](O)[C@@H](O)[C@H](O)[C@H](O)CO)c(I)c(N(C)C(C)=O)c1I [Compound 3, N-(N-methyl-3,5-diacetamido-2,4,6-triiodobenzoyl)-N-methyl glucamine]
Intravenous LD50 (mice [1]): 6000 mgI/kg
Intracerebral LD50 (mice [2]; dose 0.05 ml/20 g mouse): > 750 mgI/kg
solubility (Solubility in water): > 500 mg/mL
Osmolality [3]: 0.47 mol/kg

O=S(=O)(O)CI [iodomethane sulphonate]
Absorption [4]: quite rapidly absorbed
Toxicity in use [4]: too toxic for cisternography, ventriculography and cervical or thoracic myelography

CC(=O)Nc1c(I)c(C(=O)N[C@H]2C(O)O[C@H](CO)[C@@H](O)[C@@H]2O)c(I)c(N(C)C(C)=O)c1I (some centres unmarked) [Compound 11, N-(N-methyl-3,5-diacetamido-2,4,6-triiodobenzoyl)-glucosamine]
Intravenous LD50 (mice [1]): 15000 mgI/kg
Intracerebral LD50 (mice [2]; dose 0.10 ml/20 g mouse): > 1500 mgI/kg
solubility (Solubility in water): > 500 mg/mL
Osmolality [3]: 0.48 mol/kg

CC(=O)Nc1c(I)c(C(=O)NC[C@H](O)[C@@H](O)[C@H](O)[C@H](O)CO)c(I)c(N(C)C(C)=O)c1I [Compound 33, N-(N-methyl-3,5-diacetamido-2,4,6-triiodobenzoyl)-D-glucamine]
Intravenous LD50 (mice [1]): 14250 mgI/kg
Intracerebral LD50 (mice [2]; dose 0.05 ml/20 g mouse): > 750 mgI/kg
Intracerebral LD50 (mice [2]; dose 0.10 ml/20 g mouse): > 1500 mgI/kg
solubility (Solubility in water): > 500 mg/mL
Osmolality [3]: 0.48 mol/kg

CC(=O)N(CCO)c1c(I)c(C(=O)N(C)CC(O)CO)c(I)c(N(CCO)C(C)=O)c1I (centres unmarked) [Compound 44]
Intracerebral LD50 (mice [2]; dose 0.05 ml/20 g mouse): > 750 mgI/kg
Intracerebral LD50 (mice [2]; dose 0.10 ml/20 g mouse): > 1500 mgI/kg
solubility (Solubility in water): > 500 mg/mL
Osmolality [3]: 0.53 mol/kg

CC(=O)Nc1c(I)c(C(=O)N(C)CC(O)CO)c(I)c(C(=O)N(C)CC(O)CO)c1I (centres unmarked) [Compound 9, 3,5-Bis-[N-(2,3-dihydroxypropyl)-N-methylcarbomoyl]-2,4,6-triiodoacetanilide]
Intravenous LD50 (mice [1]): 13500 mgI/kg
Intracerebral LD50 (mice [2]; dose 0.10 ml/20 g mouse): about 1500 mgI/kg
solubility (Solubility in water): > 500 mg/mL
Viscosity (Viscosity): 7.1 cp
